Assay results as given in ChEMBL document CHEMBL5042510, “Structure-Guided Discovery of Aminoquinazolines as Brain-Penetrant and Selective LRRK2 Inhibitors” (J Med Chem, 2022).

Assays:
[1] = Genotoxicity in CHO-WBL cells incubated for 3 hrs in presence of liver S9 extract by invitro micronucleus test; type: toxicity, Cricetulus griseus; conditions: chinese hamster, s9, 3 h
[2] = Cardiotoxicity in telemetered Wistar Han rat assessed as elevation of systolic blood pressure at 100 mg/kg, po; type: toxicity, organism-based; conditions: in vivo
[3] = biological target: Leucine-rich repeat serine/threonine-protein kinase 2 (Homo sapiens) (UniProt Q5S007); assay: Ex vivo inhibition of LRRK2 in human PBMC assessed as unbound concentration required for reduction in LRRK2 phosphorylation at Ser935 residue incubated for 90 mins by MSD assay; type: cell-based
[4] = In vivo inhibition of LRRK2 in CD rat assessed as reduction in phosphorylation at Ser935 residue in striatum at 100 mg/kg, po measured after 2 hrs by MSD assay; type: functional
rat Mdr1a (P-gp) = assay: Efflux ratio of apparent permeability across basolateral to apical side over apical to basolateral side in rat Mdr1a-transfected pig LLC-PK1 cells at 0.1 to 1 uM measured after 3 hrs by LC/MS/MS analysis; type: ADME, cell-based, Sus scrofa; conditions: dose 0.1-1 µM
[5] = Unbound brain-to-plasma concentration ratio in rat at 2.5 uM incubated for 4 hrs by equilibrium dialysis method; type: ADME, cell-free; conditions: brain and plasma (unbound), read-out: K(p,uu,brain)
CYP1A1 = assay: Toxicity in rat assessed as fold induction of CYP1A1 transcriptional activity in liver at 10 to 75 mg/kg, po bid administered for 4 days relative to control; type: organism-based; conditions: dose 10-75 mg/kg, time 4 day, read-out: FC
[6] = MRT in Beagle dog at 1 mg/kg, iv by LC-MS/MS analysis; type: ADME, organism-based, Canis lupus familiaris; conditions: in vivo
[7] = Total plasma clearance in Wistar Han rat at 2 mg/kg, iv by LC-MS/MS analysis; type: ADME, organism-based
[8] = Toxicity in rat assessed as elevation of AhR gene expression at 10 to 75 mg/kg, po bid administered for 4 days; type: organism-based; conditions: in vivo, 96 h, dose 10-75 mg/kg, time 4 day
[9] = Toxicity in rat assessed as body weight loss at 400 mg/kg, po qd administered for 4 days; type: organism-based; conditions: in vivo, 96 h, time 4 day
[10] = Toxicity in rat assessed as elevation of inflammatory response related gene expression at 10 to 75 mg/kg, po bid administered for 4 days; type: organism-based; conditions: in vivo, 96 h, dose 10-75 mg/kg, time 4 day
[11] = biological target: Mitogen-activated protein kinase 3 (Homo sapiens, UniProt P27361); assay: Inhibition of ERK1 (unknown origin)
UGT1A6 = assay: Toxicity in rat assessed as fold increase in UGT1A6 transcriptional activity in liver at 75 mg/kg, po bid administered for 4 days relative to control; type: organism-based; conditions: time 4 day, read-out: FC
[12] = Toxicity in rat assessed as clinical signs of toxicity at 40 to 400 mg/kg, po qd administered for 4 days; type: organism-based; conditions: in vivo, 96 h, dose 40-400 mg/kg, time 4 day
[13] = Cardiotoxicity in telemetered Wistar Han rat assessed as elevation of diastolic blood pressure at 100 mg/kg, po; type: toxicity, organism-based; conditions: in vivo
[14] = Cardiotoxicity in guinea pig assessed as increase in QTc level at 157X unbound EM infused via iv consecutively for 20 mins; type: toxicity, organism-based, Cavia porcellus; conditions: in vivo
[15] = biological target: Voltage-gated inwardly rectifying potassium channel KCNH2 (Homo sapiens, UniProt Q12809); assay: Inhibition of human ERG by voltage clamp assay; type: toxicity
Chain of Voltage-gated inwardly rectifying potassium channel KCNH2 (Q12809 whole entry): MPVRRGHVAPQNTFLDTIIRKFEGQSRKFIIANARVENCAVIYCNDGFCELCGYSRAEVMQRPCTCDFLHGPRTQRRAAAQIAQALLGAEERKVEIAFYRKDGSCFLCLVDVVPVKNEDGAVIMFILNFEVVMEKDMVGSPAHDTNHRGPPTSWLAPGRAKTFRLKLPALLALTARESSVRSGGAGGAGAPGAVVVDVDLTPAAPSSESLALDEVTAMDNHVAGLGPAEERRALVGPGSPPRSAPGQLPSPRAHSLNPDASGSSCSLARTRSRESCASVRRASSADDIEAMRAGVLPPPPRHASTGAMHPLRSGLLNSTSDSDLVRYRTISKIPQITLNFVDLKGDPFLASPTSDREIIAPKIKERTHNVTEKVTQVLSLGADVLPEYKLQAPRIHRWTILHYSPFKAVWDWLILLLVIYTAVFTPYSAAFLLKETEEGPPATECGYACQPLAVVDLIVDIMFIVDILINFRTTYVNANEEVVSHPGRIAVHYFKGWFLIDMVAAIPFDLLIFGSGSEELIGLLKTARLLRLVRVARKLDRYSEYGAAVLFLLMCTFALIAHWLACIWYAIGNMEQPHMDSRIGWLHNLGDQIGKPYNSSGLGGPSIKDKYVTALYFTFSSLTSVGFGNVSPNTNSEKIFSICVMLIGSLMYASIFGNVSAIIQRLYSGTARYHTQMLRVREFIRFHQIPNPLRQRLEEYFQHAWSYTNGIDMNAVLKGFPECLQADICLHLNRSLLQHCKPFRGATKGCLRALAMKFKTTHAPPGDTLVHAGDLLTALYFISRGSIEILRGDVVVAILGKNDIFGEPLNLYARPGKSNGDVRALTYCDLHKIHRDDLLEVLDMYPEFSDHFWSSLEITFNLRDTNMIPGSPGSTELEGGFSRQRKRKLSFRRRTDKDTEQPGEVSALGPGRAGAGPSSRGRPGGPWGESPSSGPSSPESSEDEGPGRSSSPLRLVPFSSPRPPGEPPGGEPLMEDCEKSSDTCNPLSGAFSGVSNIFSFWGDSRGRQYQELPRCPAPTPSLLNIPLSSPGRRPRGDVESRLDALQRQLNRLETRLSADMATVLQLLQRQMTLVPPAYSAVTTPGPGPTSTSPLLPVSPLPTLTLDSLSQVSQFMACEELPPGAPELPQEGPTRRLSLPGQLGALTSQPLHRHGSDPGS

Chain of Mitogen-activated protein kinase 3 (P27361 whole entry): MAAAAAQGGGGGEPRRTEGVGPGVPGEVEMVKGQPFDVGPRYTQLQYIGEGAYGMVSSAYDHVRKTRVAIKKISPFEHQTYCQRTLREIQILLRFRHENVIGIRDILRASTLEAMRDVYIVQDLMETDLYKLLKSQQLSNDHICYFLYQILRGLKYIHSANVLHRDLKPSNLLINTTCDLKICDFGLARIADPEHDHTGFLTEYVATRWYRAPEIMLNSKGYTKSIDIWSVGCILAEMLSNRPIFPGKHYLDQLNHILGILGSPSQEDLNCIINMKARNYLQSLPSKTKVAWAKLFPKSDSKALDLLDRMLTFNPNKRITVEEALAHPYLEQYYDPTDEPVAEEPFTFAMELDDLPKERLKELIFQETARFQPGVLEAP
Chain of Leucine-rich repeat serine/threonine-protein kinase 2 (Homo sapiens) (Q5S007 whole entry): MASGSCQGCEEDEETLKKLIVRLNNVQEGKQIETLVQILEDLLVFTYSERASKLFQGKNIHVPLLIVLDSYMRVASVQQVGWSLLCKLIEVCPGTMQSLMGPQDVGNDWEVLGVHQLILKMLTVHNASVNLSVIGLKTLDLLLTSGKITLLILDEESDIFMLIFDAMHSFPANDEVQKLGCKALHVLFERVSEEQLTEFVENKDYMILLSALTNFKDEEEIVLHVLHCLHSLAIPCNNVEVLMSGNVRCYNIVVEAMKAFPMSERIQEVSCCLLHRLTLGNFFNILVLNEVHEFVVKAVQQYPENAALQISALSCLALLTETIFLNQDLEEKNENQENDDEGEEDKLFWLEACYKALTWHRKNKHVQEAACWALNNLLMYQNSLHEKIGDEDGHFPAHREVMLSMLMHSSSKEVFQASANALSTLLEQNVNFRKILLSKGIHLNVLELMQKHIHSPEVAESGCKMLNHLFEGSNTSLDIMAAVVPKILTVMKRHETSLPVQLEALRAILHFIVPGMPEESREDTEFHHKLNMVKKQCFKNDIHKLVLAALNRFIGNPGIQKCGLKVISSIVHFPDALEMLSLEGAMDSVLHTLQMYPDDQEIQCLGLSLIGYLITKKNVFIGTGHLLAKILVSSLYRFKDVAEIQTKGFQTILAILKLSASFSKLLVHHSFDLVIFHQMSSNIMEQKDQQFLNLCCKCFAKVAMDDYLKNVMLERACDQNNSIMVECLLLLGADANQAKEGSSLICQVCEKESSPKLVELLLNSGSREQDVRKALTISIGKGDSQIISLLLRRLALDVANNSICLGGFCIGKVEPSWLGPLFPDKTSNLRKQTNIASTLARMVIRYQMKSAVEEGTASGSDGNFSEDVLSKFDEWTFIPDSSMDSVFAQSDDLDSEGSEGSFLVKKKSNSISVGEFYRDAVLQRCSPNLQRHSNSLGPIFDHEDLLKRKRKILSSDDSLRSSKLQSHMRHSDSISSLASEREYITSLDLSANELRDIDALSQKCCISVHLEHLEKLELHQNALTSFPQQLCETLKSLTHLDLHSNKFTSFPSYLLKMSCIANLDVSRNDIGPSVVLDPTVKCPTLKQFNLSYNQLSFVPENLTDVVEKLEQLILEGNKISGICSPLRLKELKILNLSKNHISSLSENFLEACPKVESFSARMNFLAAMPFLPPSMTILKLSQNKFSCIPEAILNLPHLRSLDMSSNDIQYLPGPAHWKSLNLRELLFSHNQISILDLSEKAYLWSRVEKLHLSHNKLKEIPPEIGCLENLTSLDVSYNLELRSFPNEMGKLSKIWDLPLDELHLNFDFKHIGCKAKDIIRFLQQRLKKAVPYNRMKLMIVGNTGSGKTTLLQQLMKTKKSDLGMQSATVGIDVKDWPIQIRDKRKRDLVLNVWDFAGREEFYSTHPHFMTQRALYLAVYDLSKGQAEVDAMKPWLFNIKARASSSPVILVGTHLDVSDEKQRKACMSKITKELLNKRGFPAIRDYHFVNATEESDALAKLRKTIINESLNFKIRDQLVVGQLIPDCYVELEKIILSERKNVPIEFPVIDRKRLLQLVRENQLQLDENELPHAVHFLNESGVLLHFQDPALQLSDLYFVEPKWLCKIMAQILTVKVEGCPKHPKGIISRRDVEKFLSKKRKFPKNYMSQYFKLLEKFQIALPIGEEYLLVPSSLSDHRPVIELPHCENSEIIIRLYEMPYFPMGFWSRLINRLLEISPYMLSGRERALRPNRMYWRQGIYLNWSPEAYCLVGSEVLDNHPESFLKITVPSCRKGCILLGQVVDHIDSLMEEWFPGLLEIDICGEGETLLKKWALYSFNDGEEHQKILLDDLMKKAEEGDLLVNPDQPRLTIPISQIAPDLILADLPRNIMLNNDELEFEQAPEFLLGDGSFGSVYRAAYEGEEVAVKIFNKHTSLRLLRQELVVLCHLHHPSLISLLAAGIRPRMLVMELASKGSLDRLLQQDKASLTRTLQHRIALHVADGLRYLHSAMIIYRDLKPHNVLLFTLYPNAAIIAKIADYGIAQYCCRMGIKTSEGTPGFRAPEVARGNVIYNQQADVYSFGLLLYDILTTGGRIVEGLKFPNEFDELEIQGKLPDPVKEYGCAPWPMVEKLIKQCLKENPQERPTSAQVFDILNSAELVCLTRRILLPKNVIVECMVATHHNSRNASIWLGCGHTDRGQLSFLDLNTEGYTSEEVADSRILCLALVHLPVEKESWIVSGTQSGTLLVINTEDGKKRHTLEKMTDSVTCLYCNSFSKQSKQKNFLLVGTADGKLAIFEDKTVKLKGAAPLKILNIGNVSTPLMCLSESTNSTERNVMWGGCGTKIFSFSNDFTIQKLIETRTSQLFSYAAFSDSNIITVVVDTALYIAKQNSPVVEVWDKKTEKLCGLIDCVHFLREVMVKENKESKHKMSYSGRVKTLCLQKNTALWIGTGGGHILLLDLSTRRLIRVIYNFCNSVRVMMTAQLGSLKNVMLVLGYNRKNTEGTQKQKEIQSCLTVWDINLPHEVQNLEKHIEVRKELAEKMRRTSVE

For O[C@H]1COC[C@H]1N1CC[C@@H](c2cc3nc(Nc4cnn([C@@H]5CC5(F)F)c4Cl)ncc3cc2Cl)[C@H](F)C1, which Activity [1] is on record?
Its Activity is “Non-Toxic”.

What about the Activity [2] of the same compound?
Its Activity is “Toxic”.

And the fIC50 [3]?
The fIC50 was 1.9 nM.

What about the inhibition in vivo at 100 mg/kg [4] of the same compound?
Its inhibition in vivo at 100 mg/kg is 97%.

What about the efflux ratio at 3 h, up to 1 µM (rat Mdr1a (P-gp)) of the same compound?
Its efflux ratio at 3 h, up to 1 µM is 3.7.

What about the Kp uu at 4 h, 2.5 µM [5] of the same compound?
The Kp uu at 4 h, 2.5 µM was 0.36.

What about the fold induction at 96 h (CYP1A1) of the same compound?
The fold induction at 96 h was 3.

What about the MRT [6] of the same compound?
Its MRT is 24 h.

And the clearance [7]?
Its clearance is 19 mL/min/kg.

What about the Activity [8] of the same compound?
Its Activity is “Non-Toxic”.

What about the Activity [9] of the same compound?
Its Activity is “Toxic”.

And the Activity [10]?
The Activity was “Non-Toxic”.

And the IC50 [11]?
The IC50 was 1.8 µM.

And the fold induction at 96 h (UGT1A6)?
Its fold induction at 96 h is 2.5.

What about the Activity [12] of the same compound?
Its Activity is “Non-Toxic”.

What about the Activity [13] of the same compound?
Its Activity is “Toxic”.

What about the Activity [14] of the same compound?
Its Activity is 2%.

And the IC50 [15]?
The IC50 was 9.7 µM.
